Test results as given in BigSolDB 2.1.

[1] = in gamma-valerolactone, 283.15 K
[2] = in gamma-valerolactone, 293.15 K
[3] = in gamma-valerolactone, 303.15 K
[4] = in gamma-valerolactone, 313.15 K
[5] = in gamma-valerolactone, 323.15 K
[6] = in gamma-valerolactone, 333.15 K

For `C[C@H](CCC(=O)O)[C@H]1CC[C@H]2[C@@H]3CC[C@@H]4C[C@H](O)CC[C@]4(C)[C@H]3C[C@H](O)[C@]12C`, the solubility (mole fraction) (in 2-pentanone, 283.15 K) was 0.000911, the solubility (mole fraction) (in 2-pentanone, 293.15 K) was 0.00145 and the solubility (mole fraction) (in 2-pentanone, 303.15 K) was 0.00198. It also gave a solubility (mole fraction) (in 2-pentanone, 313.15 K) of 0.00286, a solubility (mole fraction) (in 2-pentanone, 323.15 K) of 0.00378 and a solubility (mole fraction) (in 2-pentanone, 333.15 K) of 0.0049. It also gave a solubility (mole fraction) (in cyclohexanone, 283.15 K) of 0.00147, a solubility (mole fraction) (in cyclohexanone, 293.15 K) of 0.00214 and a solubility (mole fraction) (in cyclohexanone, 303.15 K) of 0.00302. For the same molecule, the solubility (mole fraction) (in cyclohexanone, 313.15 K) was 0.00416, the solubility (mole fraction) (in cyclohexanone, 323.15 K) was 0.00567 and the solubility (mole fraction) (in cyclohexanone, 333.15 K) was 0.00744. For the same molecule, the solubility (mole fraction) (in ethyl acetate, 283.15 K) was 0.000187, the solubility (mole fraction) (in ethyl acetate, 293.15 K) was 0.000304 and the solubility (mole fraction) (in ethyl acetate, 303.15 K) was 0.000448. The solubility (mole fraction) (in ethyl acetate, 313.15 K) was 0.000771, the solubility (mole fraction) (in ethyl acetate, 323.15 K) was 0.0011 and the solubility (mole fraction) (in ethyl acetate, 333.15 K) was 0.00147. It also gave a solubility (mole fraction) (in furfural, 283.15 K) of 0.000227, a solubility (mole fraction) (in furfural, 293.15 K) of 0.000293 and a solubility (mole fraction) (in furfural, 303.15 K) of 0.000478. For the same molecule, the solubility (mole fraction) (in furfural, 313.15 K) was 0.000599, the solubility (mole fraction) (in furfural, 323.15 K) was 0.000913 and the solubility (mole fraction) (in furfural, 333.15 K) was 0.0014. For the same molecule, the solubility (mole fraction) [1] was 0.000904, the solubility (mole fraction) [2] was 0.00147 and the solubility (mole fraction) [3] was 0.00217. It also gave a solubility (mole fraction) [4] of 0.00304, a solubility (mole fraction) [5] of 0.00509 and a solubility (mole fraction) [6] of 0.00757. The solubility (mole fraction) (in methyl acetate, 283.15 K) was 0.000224, the solubility (mole fraction) (in methyl acetate, 293.15 K) was 0.000382 and the solubility (mole fraction) (in methyl acetate, 303.15 K) was 0.00071. The solubility (mole fraction) (in methyl acetate, 313.15 K) was 0.00107, the solubility (mole fraction) (in methyl acetate, 323.15 K) was 0.0016 and the solubility (mole fraction) (in n-butanol, 283.15 K) was 0.00134. For the same molecule, the solubility (mole fraction) (in n-butanol, 293.15 K) was 0.00159, the solubility (mole fraction) (in n-butanol, 303.15 K) was 0.00189 and the solubility (mole fraction) (in n-butanol, 313.15 K) was 0.00246. For the same molecule, the solubility (mole fraction) (in n-butanol, 323.15 K) was 0.00275, the solubility (mole fraction) (in n-butanol, 333.15 K) was 0.00315 and the solubility (mole fraction) (in n-butyl acetate, 283.15 K) was 0.000222. It also gave a solubility (mole fraction) (in n-butyl acetate, 293.15 K) of 0.000275, a solubility (mole fraction) (in n-butyl acetate, 303.15 K) of 0.000415 and a solubility (mole fraction) (in n-butyl acetate, 313.15 K) of 0.000609. The solubility (mole fraction) (in n-butyl acetate, 323.15 K) was 0.000875, the solubility (mole fraction) (in n-butyl acetate, 333.15 K) was 0.00127 and the solubility (mole fraction) (in n-hexanol, 283.15 K) was 0.00773. It also gave a solubility (mole fraction) (in n-hexanol, 293.15 K) of 0.00902, a solubility (mole fraction) (in n-hexanol, 303.15 K) of 0.0102 and a solubility (mole fraction) (in n-hexanol, 313.15 K) of 0.0125. The solubility (mole fraction) (in n-hexanol, 323.15 K) was 0.0153, the solubility (mole fraction) (in n-hexanol, 333.15 K) was 0.0174 and the solubility (mole fraction) (in n-octanol, 283.15 K) was 0.00898. It also gave a solubility (mole fraction) (in n-octanol, 293.15 K) of 0.0116, a solubility (mole fraction) (in n-octanol, 303.15 K) of 0.0135 and a solubility (mole fraction) (in n-octanol, 313.15 K) of 0.016. For the same molecule, the solubility (mole fraction) (in n-octanol, 323.15 K) was 0.0192 and the solubility (mole fraction) (in n-octanol, 333.15 K) was 0.0232.

`C[C@H](CCC(=O)O)[C@H]1CC[C@H]2[C@@H]3[C@H](O)C[C@@H]4C[C@H](O)CC[C@]4(C)[C@H]3C[C@H](O)[C@]12C` showed a solubility (mole fraction) (in 2-pentanone, 283.15 K) of 0.00141, a solubility (mole fraction) (in 2-pentanone, 293.15 K) of 0.00164 and a solubility (mole fraction) (in 2-pentanone, 303.15 K) of 0.00206. It also gave a solubility (mole fraction) (in 2-pentanone, 313.15 K) of 0.00247, a solubility (mole fraction) (in 2-pentanone, 323.15 K) of 0.00299 and a solubility (mole fraction) (in 2-pentanone, 333.15 K) of 0.00345. The solubility (mole fraction) (in cyclohexanone, 283.15 K) was 0.00753, the solubility (mole fraction) (in cyclohexanone, 293.15 K) was 0.00842 and the solubility (mole fraction) (in cyclohexanone, 303.15 K) was 0.00952. The solubility (mole fraction) (in cyclohexanone, 313.15 K) was 0.0106, the solubility (mole fraction) (in cyclohexanone, 323.15 K) was 0.012 and the solubility (mole fraction) (in cyclohexanone, 333.15 K) was 0.0137. For the same molecule, the solubility (mole fraction) (in ethyl acetate, 283.15 K) was 0.000154, the solubility (mole fraction) (in ethyl acetate, 293.15 K) was 0.000242 and the solubility (mole fraction) (in ethyl acetate, 303.15 K) was 0.000392. It also gave a solubility (mole fraction) (in ethyl acetate, 313.15 K) of 0.000536, a solubility (mole fraction) (in ethyl acetate, 323.15 K) of 0.000713 and a solubility (mole fraction) (in ethyl acetate, 333.15 K) of 0.000942. The solubility (mole fraction) (in furfural, 283.15 K) was 3.55e-05, the solubility (mole fraction) (in furfural, 293.15 K) was 7.5e-05 and the solubility (mole fraction) (in furfural, 303.15 K) was 0.000127. The solubility (mole fraction) (in furfural, 313.15 K) was 0.000197, the solubility (mole fraction) (in furfural, 323.15 K) was 0.000349 and the solubility (mole fraction) (in furfural, 333.15 K) was 0.000563. The solubility (mole fraction) [1] was 0.000822, the solubility (mole fraction) [2] was 0.00154 and the solubility (mole fraction) [3] was 0.00258. It also gave a solubility (mole fraction) [4] of 0.00412, a solubility (mole fraction) [5] of 0.00604 and a solubility (mole fraction) [6] of 0.00978. It also gave a solubility (mole fraction) (in methyl acetate, 283.15 K) of 7.59e-05, a solubility (mole fraction) (in methyl acetate, 293.15 K) of 0.000128 and a solubility (mole fraction) (in methyl acetate, 303.15 K) of 0.000232. It also gave a solubility (mole fraction) (in methyl acetate, 313.15 K) of 0.000489, a solubility (mole fraction) (in methyl acetate, 323.15 K) of 0.000811 and a solubility (mole fraction) (in n-butanol, 283.15 K) of 0.00219. For the same molecule, the solubility (mole fraction) (in n-butanol, 293.15 K) was 0.00245, the solubility (mole fraction) (in n-butanol, 303.15 K) was 0.0027 and the solubility (mole fraction) (in n-butanol, 313.15 K) was 0.00296. It also gave a solubility (mole fraction) (in n-butanol, 323.15 K) of 0.00337, a solubility (mole fraction) (in n-butanol, 333.15 K) of 0.00389 and a solubility (mole fraction) (in n-butyl acetate, 283.15 K) of 0.000224. For the same molecule, the solubility (mole fraction) (in n-butyl acetate, 293.15 K) was 0.000284, the solubility (mole fraction) (in n-butyl acetate, 303.15 K) was 0.000378 and the solubility (mole fraction) (in n-butyl acetate, 313.15 K) was 0.000492. The solubility (mole fraction) (in n-butyl acetate, 323.15 K) was 0.000613, the solubility (mole fraction) (in n-butyl acetate, 333.15 K) was 0.000765 and the solubility (mole fraction) (in n-hexanol, 283.15 K) was 0.0156. It also gave a solubility (mole fraction) (in n-hexanol, 293.15 K) of 0.0166, a solubility (mole fraction) (in n-hexanol, 303.15 K) of 0.0182 and a solubility (mole fraction) (in n-hexanol, 313.15 K) of 0.0202. The solubility (mole fraction) (in n-hexanol, 323.15 K) was 0.0223, the solubility (mole fraction) (in n-hexanol, 333.15 K) was 0.0236 and the solubility (mole fraction) (in n-octanol, 283.15 K) was 0.0154. It also gave a solubility (mole fraction) (in n-octanol, 293.15 K) of 0.0171, a solubility (mole fraction) (in n-octanol, 303.15 K) of 0.0183 and a solubility (mole fraction) (in n-octanol, 313.15 K) of 0.0201. For the same molecule, the solubility (mole fraction) (in n-octanol, 323.15 K) was 0.0222 and the solubility (mole fraction) (in n-octanol, 333.15 K) was 0.0242.
